Source: patent US9132176B2, “RAB6KIFL/KIF20A epitope peptide and vaccines containing the same” (ONCOTHERAPY SCIENCE, INC., priority 2008, dated 2015)
Where a SMILES comes first, the peptide text is derived from it.

Experiments:
[1] = system: PANC1; assay: 51Cr release assay of peptide-induced CTLs against PANC1; assay type: cell-based, human; conditions: PANC1 (RAB6KIFL+, HLA-A2+); healthy donors
Excerpt: (§1) Human RAB6KIFL-derived peptides (purity>95%), carrying binding motifs for HLA-A2 (A*0201)-encoded molecules, were selected using the BIMAS software program (BioInformatics and Molecular Analysis Section, Center for Information Technology, NIH, Bethesda, Md.) and 36 peptides were synthesized (American Peptide Company, CA, USA) (Tables 1A and B). Monocyte-derived DCs were used as antigen-presenting cells to induce CTL responses against peptides presented in the context of HLA. DCs were generated in vitro culture as described previously (Yoshitake Y, et al. Clin Cancer Res 2004; 10:6437-48, Harao M, et al. Int J Cancer 2008; in press, Imai K, et al. Clin Cancer Res 2008; in press). Briefly, PBMCs isolated from a normal volunteer positive for HLA-A2 using Ficoll-Plaque (GE Healthcare UK, Ltd., Buckinghamshire, UK) solution were sorted to CD8^+ population and CD14^+ population with microbeads (Miltenyi Biotec, Bergisch Gladbach, Germany). To generate DCs, the CD14^+ population was cultured in the presence of 100 ng/mL granulocyte-macrophage colony-stimulating factor (GM-CSF; PeproTec Inc., NJ, USA) and 10 ng/mL interleukin (IL)-4 (PeproTec) in AIM-V (Invitrogen) containing 2% heat-inactivated autologous plasma. After 5 days of culture, OK-432 was added into the dish to make the DCs mature. […]
(§2) The CTLs were cocultured with each of the cancer cells, or the peptide-pulsed T2 cells, as a target cell (5×10^3/well) at the indicated effector/target ratio and a standard ^51Cr release assay was done as described previously (Yoshitake Y, et al. Clin Cancer Res 2004; 10:6437-48. Imai K, et al. Clin Cancer Res 2008; in press). […] After 6 h incubation, 50 micro L of the supernatant was collected from each well and the radioactivity was quantified using a gamma counter. The specific cytotoxicity was evaluated by calculating the percentage of specific ^51Cr release. […]

[2] = system: SKHep1/RAB6KIFL; assay: 51Cr release assay of peptide-induced CTLs against SKHep1/RAB6KIFL; assay type: cell-based, human; conditions: SKHep1 transfected with RAB6KIFL gene (RAB6KIFL high, HLA-A2+)
Protocol: (§3) A lentiviral vector-mediated gene transfer was performed as described previously (Imai K, et al. Clin Cancer Res 2008; 14:6487-95, Tahara-Hanaoka S, et al. Exp Hematol 2002; 30:11-7). Briefly, 17 micro-g of CSII-CMV-RfA and CSIIEF-RfA self-inactivating vectors (Miyoshi H, et al. J Virol 1998; 72: 8150-7) carrying RAB6KIFL cDNAs and 10 micro-g of pCMV-VSV-G-RSV-Rev and pCAG-HIVgp were transfected into the 293T cells grown in a 10-cm culture dish using Lipofectamine 2000 reagent (Invitrogen Corporation, Carlsbad, Calif., USA). After 60 hr of transfection, the medium was recovered and the viral particles were pelleted by ultra-centrifugation (50,000×g, 2 hr). The pellet was suspended in 50 micro-L of RPMI 1640 medium and 10 micro-L of viral suspension was added to 5×10^4 SKHep1 cells, per well in a flat-bottom 96-well plate. The expression of the transfected RAB6KIFL gene was confirmed by a Western blot analysis.
as §1, with “Germany).” for “Germany). To generate DCs, the CD14^+ population was cultured in the presence of 100 ng/mL granulocyte-macrophage colony-stimulating factor (GM-CSF; PeproTec Inc., NJ, USA) and 10 ng/mL interleukin (IL)-4 (PeproTec) in AIM-V (Invitrogen) containing 2% heat-inactivated autologous plasma. After 5 days of culture, OK-432 was added into the dish to make the DCs mature.”

[3] = system: T2 cells; assay: Induction of human CTLs from PBMCs, 51Cr release assay against peptide-pulsed T2 cells; assay type: cell-based; conditions: CTLs from PBMCs of two HLA-A2-positive healthy donors, three stimulations with peptide-pulsed DCs
Excerpt: as §1, §2

[4] = system: CaCo-2; assay: 51Cr release assay of peptide-induced CTLs against CaCo-2; assay type: cell-based, human; conditions: CaCo-2 (RAB6KIFL+, HLA-A2+); healthy donors
Excerpt: as §1, §2

[5] = system: SKHep1/Mock; assay: 51Cr release assay of peptide-induced CTLs against SKHep1/Mock; assay type: cell-based, human; conditions: mock-transfected SKHep1
Protocol: as §3
as §1, with “Germany).” for “Germany). To generate DCs, the CD14^+ population was cultured in the presence of 100 ng/mL granulocyte-macrophage colony-stimulating factor (GM-CSF; PeproTec Inc., NJ, USA) and 10 ng/mL interleukin (IL)-4 (PeproTec) in AIM-V (Invitrogen) containing 2% heat-inactivated autologous plasma. After 5 days of culture, OK-432 was added into the dish to make the DCs mature.”

[6] = system: cancer cells expressing both RAB6KIFL and HLA-A2; assay: Comparison of the cytotoxicity of CTLs induced by the three peptides; assay type: cell-based, human; conditions: vs RAB6KIFL-A2-9-12 and RAB6KIFL-A2-10-284
Protocol: The CTLs were cocultured with each of the cancer cells, or the peptide-pulsed T2 cells, as a target cell (5×10^3/well) at the indicated effector/target ratio and a standard ^51Cr release assay was done as described previously (Yoshitake Y, et al. Clin Cancer Res 2004; 10:6437-48. Imai K, et al. Clin Cancer Res 2008; in press). Briefly, target cells were labeled with 3.7 KBq […] (Perkin Elmer Life Sciences) for 1 h at 37 degree C. in a CO2 incubator. Labeled target cells were rinsed three times, and peptide-pulsed target cells were prepared by incubating the cells with 20 micro g/mL peptide for 3 h at 37 degrees C. Target cells were mixed with effector cells in final volume of 200 micro L in flat-bottomed microtiter plates and incubated. After 6 h incubation, 50 micro L of the supernatant was collected from each well and the radioactivity was quantified using a gamma counter. The specific cytotoxicity was evaluated by calculating the percentage of specific ^51Cr release.
The potential of RAB6KIFL as an immunotherapeutic target was verified herein by identifying the HLA-A2-restricted epitope peptides and evaluating their immunogenicity. […]

[7] = system: HLA-A2 (HHD) Tgm; assay: Autoimmune phenomenon after peptide vaccination: immunohistochemistry with anti-CD4/anti-CD8 mAb and observation; assay type: in vivo, mouse
Protocol: Western blotting and immunohistochemical staining of RAB6KIFL protein were performed as described previously (Nakatsura T, et al. Biochem Biophys Res Commun 2001; 281:936-44. Yoshitake Y, et al. Clin Cancer Res 2004; 10:6437-48). For Western blotting analyses of human normal tissues, a pre-made human adult normal tissue blot (Biochain, Hayward, Calif.) was used. The primary antibodies used herein, anti-RAB6KIFL polyclonal antibody, and monoclonal anti-b-actin antibody, were purchased from Bethyl Laboratories, Inc. (Montgomery, Tex., USA) and Sigma (Steinheim, Germany), respectively. Immunohistochemical staining of CD4 or CD8 in tissue specimens of HLA-A2.1 (HHD) Tgm immunized with the RAB6KIFL-A2-10-284 peptide was done as described previously (Matsuyoshi H, et al. 2004; 172:776-86).
It is very important to investigate whether the immunization with RAB6KIFL peptide induce an autoimmune reaction or not. We thus performed the immunohistochemical analysis of several vital organs with anti-CD4 and anti-CD8 mAb in HLA-A2 (HHD) Tgm after two-times vaccination with RAB6KIFL-A2-9-809 peptide, of which amino-acid sequences were completely conserved between human and mouse RAB6KIFL. […] The abnormalities frequently observed in mice affected with autoimmune diseases such as abnormal hair and skin, diarrhea and weight loss were also not observed in these mice.

| SMILES | cytotoxicity of peptide-stimulated CTLs to PANC1 [1] | cytotoxicity of peptide-induced CTLs against SKHep1/RAB6KIFL [2] | cytotoxic activity of induced CTLs to T2 cells pulsed with the peptide [3] | cytotoxicity of peptide-stimulated CTLs to CaCo-2 [4] | cytotoxicity of peptide-induced CTLs against SKHep1/Mock [5] | cytotoxicity of peptide-induced CTLs compared with CTLs induced by the other two peptides [6] | pathologic change (lymphocyte infiltration or tissue destruction suggesting autoimmunity) in vital organs ([7]; after two-times vaccination, anti-CD4 and anti-CD8 staining) | abnormalities of autoimmune disease (abnormal hair and skin, diarrhea, weight loss) ([7]; mouse, in vivo) |
| --- | --- | --- | --- | --- | --- | --- | --- | --- |
| CC(C)C[C@H](NC(=O)[C@@H](N)CC(C)C)C(=O)N[C@@H](CO)C(=O)N[C@@H](CC(=O)O)C(=O)N[C@@H](CC(=O)O)C(=O)N[C@@H](CC(=O)O)C(=O)N[C@H](C(=O)N[C@H](C(=O)N[C@H](C(=O)O)C(C)C)C(C)C)C(C)C [RAB6KIFL-A2-9-12, LLSDDDVVV] (H-LLSDDDVVV-OH; N-terminus and C-terminus assumed) | exhibited cytotoxicity | exhibited cytotoxicity | exhibited cytotoxic activity | exhibited cytotoxicity | but not against SKHep1/Mock | – | – | – |
| CC[C@H](C)[C@H](NC(=O)[C@@H](N)CS)C(=O)N[C@@H](C)C(=O)N[C@@H](CCC(=O)O)C(=O)N[C@@H](CCC(N)=O)C(=O)N[C@@H](Cc1ccc(O)cc1)C(=O)N[C@@H](Cc1c[nH]cn1)C(=O)N[C@H](C(=O)N[C@H](C(=O)O)C(C)C)[C@@H](C)O [RAB6KIFL-A2-9-809, CIAEQYHTV] (H-CIAEQYHTV-OH; N-terminus and C-terminus assumed) | exhibited cytotoxicity | exhibited cytotoxicity | exhibited cytotoxic activity | exhibited cytotoxicity | but not against SKHep1/Mock | stronger cytotoxicity | no pathologic change | not observed |
| CC(C)C[C@H](NC(=O)[C@@H]1CCCN1C(=O)[C@H](C)NC(=O)[C@@H](NC(=O)[C@H](CC(=O)O)NC(=O)[C@@H]1CCCN1C(=O)[C@H](CCC(N)=O)NC(=O)[C@H](C)N)[C@@H](C)O)C(=O)N1CCC[C@H]1C(=O)N[C@H](C(=O)O)C(C)C [RAB6KIFL-A2-10-284, AQPDTAPLPV] (H-AQPDTAPLPV-OH; N-terminus and C-terminus assumed) | exhibited cytotoxicity | exhibited cytotoxicity | exhibited cytotoxic activity | exhibited cytotoxicity | but not against SKHep1/Mock | – | – | – |
